Laboratory results as given in US12083109B2, “Neurokinin antagonists and uses thereof” (California Institute of Technology, priority 2017, dated 2024).
“Also recorded” adds a separate entry of the source.

Assays:
[1] = target: T1, hM3DREADD in Tac2+ neurons (Homo sapiens, UniProt P20309, A239G/Y149C); experiment: Behavioral assays in group housed Tac2-Cre mice, CNO activation (hM3DREADD) with or without Tac2 cDNA; format: in vivo, mouse
T1 construct: host or cells: Tac2+ neurons of group-housed Tac2-Cre mice, transduced in vivo by intravenous AAV-PHP.B-hSyn-DIO-hM3D-mCherry, with or without the Tac2 cDNA virus
Procedure: The AAV-hSyn-DIO-Tac2-P2A-mCherry, AAV-hSyn-DIO-hM3D-mCherry, and AAV-hSyn-DIO-mCherry recombinant AAV genomes were separately packaged into the AAV-PHP.B capsid by triple transfection of HEK293T cells and purified with iodixanol step gradients as previously described (Deverman et al., 2016; incorporated by reference in its entirety). 5×10^11 vector genomes (vg) of each virus were administered intravenously (via the retro-orbital sinus) to Tac2-Cre animals individually or in combination. To equalize the amount of virus given to each mouse, 5×10^11 vg of AAV-PHP.B-hSyn-DIO-mCherry was administered to each animal to bring the amount of virus up to the amount injected in the double Tac2^+ hM3DREAAD group. Each animal received a total vector dose of 1×10^12 vg.
Mice were administered the Nk3R antagonist osanetant (Axon Medchem, Axon 1533) either systemically or intra-brain region. Osanctant was dissolved in saline with 0.1% Tween 20 (vehicle). For systemic administration mice received an intraperitoneal (i.p.) injection (5 mg/kg) 20 minutes prior to behavioral testing. For microinfusions, guide cannulas were removed from mice and replaced with injector cannulas (Plastics One), which protruded 0.5 mm from the tip of the guide cannula. Injectors were attached to 5 μl Hamilton syringes with PE tubing (Plastics One) and mounted on a microinfusion pump (Harvard Apparatus) for controlled infusion of osanetant (0.3 μl vehicle with 375 ng dose per site injected over 6 minutes). For experiments using systemic administration of clozapine-N-oxide (CNO), CNO (Enzo Life Sciences-Biomol, BML-NS105-0005) was dissolved in saline (9 g/L NaCl) and injected (i.p.) at 5 mg/kg for hM4DREADD silencing or 2 mg/kg for hM3DREADD activation 20 minutes prior to behavioral testing. CNO was also administered chronically in drinking water (0.5 mg CNO/100 ml water).
These viruses were intravenously injected (individually or in combination) into GH Tac2-Cre mice (FIGS. 14A-T). […]

[2] = target: T2, hM4DREADD in Tac2+ neurons (Homo sapiens, UniProt P08173, A203G/Y113C); experiment: Resident intruder assay, CNO silencing of Tac2+ neurons (hM4DREADD); format: in vivo, mouse; conditions: SIS Tac2-Cre mice, hM4DREADD in DMH; CNO 5 mg/kg i.p.
T2 construct: host or cells: Tac2+ neurons of Tac2-Cre mice (dBNSTa, DMH or CeA), transduced in vivo with AAV2-EF1a-DIO-hM4D-mCherry
T2 sequence (P08173 1-479 Y113C/A203G): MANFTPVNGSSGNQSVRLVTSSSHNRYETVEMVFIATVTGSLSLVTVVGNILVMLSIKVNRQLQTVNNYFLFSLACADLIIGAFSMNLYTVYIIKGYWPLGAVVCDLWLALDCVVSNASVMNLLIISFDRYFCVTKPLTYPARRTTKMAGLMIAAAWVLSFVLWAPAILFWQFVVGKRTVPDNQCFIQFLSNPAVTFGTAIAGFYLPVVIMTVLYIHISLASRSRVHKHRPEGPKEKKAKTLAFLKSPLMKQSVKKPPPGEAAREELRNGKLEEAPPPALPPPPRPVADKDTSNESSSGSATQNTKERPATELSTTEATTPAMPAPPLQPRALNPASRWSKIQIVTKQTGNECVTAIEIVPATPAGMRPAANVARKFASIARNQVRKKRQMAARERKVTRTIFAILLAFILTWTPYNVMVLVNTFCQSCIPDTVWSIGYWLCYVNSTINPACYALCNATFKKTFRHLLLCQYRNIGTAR
Procedure: Testing for aggression using the resident intruder assay (Blanchard et al., 2003; incorporated by reference in its entirety) was performed as previously described (Hong et al., 2015; Hong et al., 2014; Lee et al., 2014; incorporated by reference in their entirety). Briefly, experimental mice (“residents”) were transported in their homecage to a novel behavior testing room (cagemates in group housed mice were removed from the homecage prior to transport for this and all other behavioral tests), where they acclimated for 5-15 minutes. Homecages were then slotted into a customized behavioral chamber lit with a surround panel of infrared lights and equipped with two synchronized infrared video cameras (Pointgrey) placed at 90-degree angles from each other to allow for simultaneous behavior recording with a front and top view. Synchronized video was acquired using Hunter 4.0 software (custom, Pietro Perona lab, Caltech). […] Fighting bouts were scored on a frame-by-frame basis and were defined as a frame during which the resident male was engaged in an episode of biting or intense aggressive behavior immediately surrounding a biting episode. Annotation files were then batch analyzed for behavior, including number of fighting bouts, using in-house customized programs in MATLAB (A. Kennedy, Caltech). […]

T1 sequence (P20309 whole entry Y149C/A239G): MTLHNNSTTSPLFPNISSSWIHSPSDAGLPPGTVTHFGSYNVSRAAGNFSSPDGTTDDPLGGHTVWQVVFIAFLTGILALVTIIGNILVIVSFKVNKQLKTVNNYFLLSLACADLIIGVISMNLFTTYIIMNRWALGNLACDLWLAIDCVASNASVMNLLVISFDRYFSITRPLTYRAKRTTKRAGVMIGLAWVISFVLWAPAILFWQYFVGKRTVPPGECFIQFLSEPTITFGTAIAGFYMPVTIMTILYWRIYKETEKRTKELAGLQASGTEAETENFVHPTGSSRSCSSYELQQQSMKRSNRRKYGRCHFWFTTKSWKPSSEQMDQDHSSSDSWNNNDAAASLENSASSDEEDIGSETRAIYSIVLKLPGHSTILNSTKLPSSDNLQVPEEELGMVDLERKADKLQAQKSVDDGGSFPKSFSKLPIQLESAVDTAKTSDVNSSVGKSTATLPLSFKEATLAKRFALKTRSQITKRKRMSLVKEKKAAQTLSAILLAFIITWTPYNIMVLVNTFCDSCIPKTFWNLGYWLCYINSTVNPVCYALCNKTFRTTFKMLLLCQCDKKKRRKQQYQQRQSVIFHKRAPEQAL

C[N+]1([O-])CCN(C2=Nc3cc(Cl)ccc3Nc3ccccc32)CC1 [CNO, clozapine-N-oxide]
SIS-like behavioral effects (increased aggression, persistent freezing to threats) ([1]; group housed Tac2-Cre mice, Tac2 cDNA plus hM3DREADD viruses, CNO in drinking water 2 weeks and 2 mg/kg i.p. before test): recapitulated key behavioral effects of SIS
SIS-like behavioral effects ([1]; group housed Tac2-Cre mice, activation of Tac2+ neurons on its own (hM3DREADD, CNO)): insufficient
SIS-like behavioral effects ([1]; group housed control mice, mCherry-only virus, treated with CNO): No such effects
aggression [2]: blocked; also recorded: inhibited
